ChEMBL document CHEMBL1158246, “New cytotoxic briaran diterpenes from the Formosan gorgonian Briareum sp” (1996)
In brackets after ≈: the same amount, converted by molar mass.

Tests used:
Assay type in all cases: functional
Details in all cases: read-out: ED50 (the source's name)
[1] = system: KB; experiment: Cytotoxicity against human KB cells
[2] = system: HT-29; experiment: Cytotoxicity against human HT29 cells
[3] = system: P388; experiment: Cytotoxicity against mouse P388 cells
[4] = system: A549; experiment: Cytotoxicity against human A549 cells

| Structure (SMILES) | EC50 [1] [µg/mL] | EC50 [2] [µg/mL] | EC50 [3] [µg/mL] | EC50 [4] [µg/mL] |
| --- | --- | --- | --- | --- |
| CC(=O)O[C@H]1C[C@@H]2O[C@]2(C)[C@@H]2[C@@H](OC(C)=O)[C@]34O[C@]3(C)C(=O)O[C@H]4/C=C(/C)CC[C@@H](OC(C)=O)[C@@]12C | 24.4 (≈ 48.3 µM) | 10.1 (≈ 19.9 µM) | 1.59 (≈ 3.14 µM) | 17.4 (≈ 34.3 µM) |
| CC(=O)O[C@H]1C[C@@H]2O[C@]2(C)[C@@H]2[C@@H](O)[C@]34O[C@]3(C)C(=O)O[C@H]4/C=C(/C)CC[C@@H](OC(C)=O)[C@@]12C | > 50 | 6.96 (≈ 15 µM) | 0.61 (≈ 1.31 µM) | > 50 |
| CC(=O)O[C@H]1CC=C(C)[C@@H]2[C@@H](O)[C@]34O[C@]3(C)C(=O)O[C@H]4/C=C(/C)CC[C@@H](OC(C)=O)[C@@]12C | 0.27 (≈ 0.602 µM) | 8.27 (≈ 18.4 µM) | 0.28 (≈ 0.624 µM) | 10.3 (≈ 23.1 µM) |
| CC(=O)O[C@H]1CC=C(C)[C@@H]2[C@@H](OC(C)=O)[C@]34O[C@]3(C)C(=O)O[C@H]4/C=C(/C)CC[C@@H](OC(C)=O)[C@@]12C [BRIAREOLIDE H] | > 50 | 0.29 (≈ 0.591 µM) | 3.1 (≈ 6.32 µM) | > 50 |
